# Where two headings read alike, the source gives them in different places.
# Legend:
# NIH3T3-EGFRinsSVD cells = assay: Antitumor effect, nude mice subcutaneously transplanted with NIH3T3-EGFRinsSVD cells; assay type: in vivo, mouse; settings: 20 mg/kg orally once daily, 14 days
# Protocol: (§1) Nude mice were subcutaneously transplanted with NIH3T3-EGFRinsASV cells, NIH3T3-EGFRinsSVD cells, or H1975-EGFRinsSVD cells to which human mutant EGFR was introduced. At the point at which the tumor volume of the tumor engrafted in the nude mice grew to about 100 to 200 mm^3, the mice were allocated into groups, 5 to 6 mice for each group, by stratified randomization such that the average tumor volume between the groups was uniform.
# (§2) The maximum tolerated dose was determined in accordance with the “Guidelines Involving Experimental Neoplasia Proposals in Mice and Rats” of the National Cancer Institute (NCI), from a humanitarian perspective.
# (§3) To compare the changes in growth of tumor over time due to administration of the individual test compounds, a relative tumor volume (which hereinafter also referred to as “RTV”) was calculated based on the tumor volume at the time the mice were divided into groups (which is taken as 1 for the tumor growth ratio), using the following formula. For a toxicity index, the body weight was measured over time, and the average body weight change (which hereinafter also referred to as “BWC (%)”) from the day on which the mice were divided into groups was calculated in accordance with the following formula.
# (§4) RTV=(the tumor volume on the day a tumor volume was measured)/(the tumor volume on the day mice were divided into groups) […]
# [1] = Time of maximum blood concentration after oral administration in nude mice; assay type: in vivo, mouse; settings: single oral administration, around
# H1975-EGFRinsSVD cells [2] = assay: Antitumor effect, nude mice subcutaneously transplanted with H1975-EGFRinsSVD cells; assay type: in vivo, mouse; settings: 20 mg/kg orally once daily, 14 days
# Protocol: as §1, §2, §3, §4
# NIH3T3-EGFRinsNPH cells = assay: Antitumor effect, nude mice subcutaneously transplanted with NIH3T3-EGFRinsNPH cells; settings: NIH3T3 EGFRinsNPH, 20 mg/kg orally once daily, 10 days
# Protocol: Nude mice were subcutaneously transplanted with NIH3T3-EGFRinsNPH cells into which human mutant EGFR was introduced. At the point at which the tumor volume of the tumor engrafted in the nude mice grew to about 100 to 200 mm^3, the mice were allocated into groups, 6 mice for each group, by stratified randomization such that the average tumor volume between the groups was uniform.
# as §2
# To compare the changes in growth of tumor over time due to administration of the individual test compounds, the tumor volume (which hereinafter also referred to as “TV”) of each mouse was calculated using the following formula. For a toxicity index, the body weight was measured over time, and the body weight change (which hereinafter also referred to as “BWC (%)”) from the day on which the mice were divided into groups was calculated in accordance with the following formula. FIGS. 9 and 10 illustrate changes in the average TV and the average BWC of the mice.
# TV (mm^3)=(the major axis x the short axis^2)/2
# (§5) BWC (%)=(the body weight measured on body weight measurement day)/(the body weight on the day mice were divided into groups)
# The T/C (%) on the final evaluation day was calculated in accordance with the following formula.
# T/C (%)=(the tumor volume of the group administered with a test compound)/(the tumor volume of the control group)
# NIH3T3-EGFRinsASV cells = assay: Antitumor effect, nude mice subcutaneously transplanted with NIH3T3-EGFRinsASV cells; assay type: in vivo, mouse; settings: 20 mg/kg orally once daily, 14 days
# Protocol: as §1, §2, §3, §4
# [3] = test system: H1975-EGFRinsSVD-Luc cells; assay: Life-extending effect, nude mice transplanted with H1975-EGFRinsSVD-Luc cells in the lung; settings: H1975 EGFR insSVD in lung, 20 mg/kg orally once daily
# Protocol: H1975-EGFRinsSVD-Luc strain was established by introducing a luciferase into H1975-EGFRinsSVD, which is a human mutant EGFR-introduced cell line. A pJTI (trademark) Fast DEST vector, which was prepared by encoding a Luciferase into NCI-H1975-EGFRinsSVD cells, was introduced into […], together with a pJTI (trademark) PhiC31 integrase expression vector, by electroporation using an Amaxa (trademark) Cell Line Nucleofector (trademark) Kit R, followed by selection using hygromycin B (Nacalai Tesque Inc.).
# In evaluation of the life-extending effect, an equivalent amount of Matrigel was added to a suspension of cultured H1975-EGFRinsSVD-Luc cells to prepare a cell suspension, and the cell suspension was transplanted into the right lung of nude mice. On day 6 after transplantation, all of the living mice were administered a luciferin through the tail vein, and allocated into groups, 9 mice for each group, by stratified randomization such that the average luminescence intensity between the groups was uniform. […] The maximum tolerated dose was determined in accordance with the “Guidelines Involving Experimental Neoplasia Proposals in Mice and Rats” of the National Cancer Institute (NCI), from a humanitarian perspective.
# To evaluate the life-extending effect, the survival period after transplantation was observed, and the survival time of each mouse was determined. From the survival time, the median survival time (which hereinafter also referred to as “MST”) of each group was calculated, and the survival period-extending effect (i.e., an increase in lifespan, which hereinafter also referred to as “I.L.S. (%)”) was calculated based on MST of the control group and the group administered with a test compound, using the following formula. For a toxicity index, the body weight was measured over time, and the body weight change (which hereinafter also referred to as “BWC (%)”) from the day on which the mice were divided into groups was calculated in accordance with the following formula.
# T: MST of the group administered with a test compound
# C: MST of the control group
# as §5
# A431 cells = assay: Cell growth inhibitory effect on wild-type EGFR-expressing human cell line (CellTiter-Glo); assay type: cell-based; settings: A-431, 72 h, read-out: GI50 A431
# Protocol: (§6) To evaluate the inhibitory activity of compounds against wild-type EGFR and mutant EGFR, the following cells were used: NCI-H1975 cells, which are human pulmonary adenocarcinoma cell lines expressing EGFR with mutation D770_N771insSVD by gene modification (which hereinafter also referred to as “H1975-EGFRinsSVD”); and A431 cells, which are human epithelial cancer cell lines expressing wild-type EGFR. H1975-EGFRinsSVD cells were prepared as follows. […] XTN (trademark) TALENs Site-Specific Nucleases (Transposagen) were introduced into the cells by electroporation using the Amaxa (trademark) Cell Line Nucleofector (trademark) Kit R, and endogenous-EGFR (T790M/L858R)-knockout cells were selected by sequencing.
# (§7) To evaluate the cell growth inhibitory effect, individual types of cells were suspended in a medium recommended by ATCC. The cell suspensions were seeded in each well of respective 96-well flat-bottom plates such that the cell count per well was 3,000, and incubated in a 5% CO2-containing incubator at 37° C. for 1 day. […] The cell count at the time incubation started (day 0) and the cell count after incubation (day 3) were measured using a CellTiter-Glo (trademark) Luminescent Cell Viability Assay (Promega Corporation) in accordance with the manufacturer's recommended protocol.
# (§8) 1) If T on day 3≥C on day 0: Growth Rate (%)=(T on day 3−C on day 0)/(C on day 3−C on day 0)×100 T: the luminescence intensity of a well to which a test compound was added. C: the luminescence intensity of a well to which the test compound was not added. Day 0: the day on which a test compound was added. Day 3: the day on which evaluation was performed. 2) If T on day 3<C on day 0: Growth Rate (%)=(T on day 3−C on day 0)/(C on day 0)×100 T: the luminescence intensity of a well to which a test compound was added. C: the luminescence intensity of a well to which the test compound was not added. Day 0: the day on which a test compound was added. Day 3: the day on which evaluation was performed.
# H1975-EGFRinsSVD cells [4] = assay: Cell growth inhibitory effect on mutant EGFR-expressing human cell line (CellTiter-Glo); assay type: cell-based; settings: Homo sapiens, NCI-H1975, 72 h, read-out: GI50 H1975 EGFRinsSVD
# Protocol: as §6, §7, §8
# Additionally, the ratio of GI50between wild-type EGFR and EGFR exon 20 insertion mutation was determined using the following formula.
# GI50 (A431): GI50 for wild-type EGFR
# GI50 (H1975 EGFRinsSVD): GI50 for EGFR exon 20 insertion mutation
smiles,measurement,setting,value
"CN(C)C/C=C/C(=O)Nc1cc2c(Nc3ccc(F)c(Cl)c3)ncnc2cc1O[C@H]1CCOC1 [Afatinib, afatinib, reference compound]",T/C (%) on the final evaluation day,NIH3T3-EGFRinsSVD cells,39%
same,time at which the maximum blood concentration is achieved,[1],three hours
same,T/C (%) on the final evaluation day,H1975-EGFRinsSVD cells [2],79%
same,T/C (%) on the final evaluation day,NIH3T3-EGFRinsNPH cells,59%
same,T/C (%) on the final evaluation day,NIH3T3-EGFRinsASV cells,46%
same,I.L.S. (%) (increase in lifespan),[3],23%
same,MST (median survival time),[3],54
"C=CC(=O)N[C@H]1CCc2c(-c3cnc4ccccc4c3)c3c(N)ncnc3n2C1 [Comparative Compound, (S)—N-(4-amino-5-(quinolin-3-yl)-6,7,8,9-tetrahydropyrimido[5,4-b]indolizin-8-yl)acrylamide, reference compound]",GI50,"A431 cells; A431, wild-type EGFR, 3 days",543 nM
same,GI50,"H1975-EGFRinsSVD cells [4]; H1975-EGFRinsSVD, D770_N771insSVD, 3 days",364 nM
"C=CC(=O)Nc1cc(Nc2nccc(-c3cn(C)c4ccccc34)n2)c(OC)cc1N(C)CCN(C)C [Osimertinib, osimertinib, reference compound]",GI50,A431 cells,[…]
same,GI50,H1975-EGFRinsSVD cells [4],194 nM

# From patent US11857513B2, “Selective inhibitor of exon 20 insertion mutant EGFR” (Taiho Pharmaceutical Co., Ltd., priority 2016, dated 2024)
